{
  "source": "paper PMC12233266",
  "about": "“Loss of serine/threonine protein phosphatase 6 severely impairs sexual stage development in malaria parasite Plasmodium berghei” (PLOS Pathogens, 2025)",
  "target": "T1, Ser/Thr protein phosphatase 6 (PbPP6) (Plasmodium berghei, UniProt A0A509AFY8)",
  "T1 construct": "gene PBANKA_0412100; full-length PbPP6 (308 aa), C-terminal His tag, expressed in Pichia GS115 (rPbPP6)",
  "T1 sequence (A0A509AFY8 1-308)": "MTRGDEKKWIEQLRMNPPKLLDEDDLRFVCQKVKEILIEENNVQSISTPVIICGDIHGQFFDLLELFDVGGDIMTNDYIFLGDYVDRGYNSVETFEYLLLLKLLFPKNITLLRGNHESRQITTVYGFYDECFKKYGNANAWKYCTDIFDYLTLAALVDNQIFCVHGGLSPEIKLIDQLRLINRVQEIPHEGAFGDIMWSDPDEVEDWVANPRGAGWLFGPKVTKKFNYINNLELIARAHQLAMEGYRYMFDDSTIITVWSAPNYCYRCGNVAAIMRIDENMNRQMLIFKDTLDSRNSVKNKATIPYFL",
  "experiment": "ProFluor Ser/Thr PPase fluorescence assay (R110 substrate) with purified recombinant enzyme, dose-response",
  "format": "biochemical",
  "data": [
    {"smiles": "C=C1[C@@H](O)[C@@H]2O[C@]3(CC[C@H](/C=C/[C@@H](C)[C@@H]4CC(C)=C[C@@]5(O[C@H](C[C@@](C)(O)C(=O)O)CC[C@H]5O)O4)O3)CC[C@H]2O[C@@H]1[C@@H](O)C[C@H](C)[C@H]1O[C@@]2(CCCCO2)CC[C@H]1C", "note": "[OKA, okadaic acid]", "values": [
      {"measurement": "IC50", "result": 860, "unit": "pM"}
    ]}
  ]
}
